Test results: patent publication US5859032A, “Pyridine derivative, anti-ulcer drug, and antibacterial drug” (priority 1996, dated 1999)

Key:
gastric mucosa = test: PD: Gastric Mucosal Integrity Test; format: in vivo, rat (male CDj:SD); design: key: 5: Same as the control with no recognizable damage at all.; 4: Though a slight PD-decreasing tendency suggesting a slight possibility of mucosal damage is found, there is no problem.; 3: Though a weak decrease in PD and a possibility of a weak mucosal damage is recognized, there is no substantial problem.; 2: Medium degree of decrease in PD is found and a mucosal damage is recognized.; 1: Heavy degree of decrease in PD is found and a remarkable mucosal damage is recognized; conditions: rat, 100 mg/kg into chamber, 60 minutes
Method: PD: Gastric Mucosal Integrity Test
In this case, since the sample compound has a necrotizing effect, it is inappropriate as an anti-ulcer medicament.
Therefore, the gastric mucosal potential difference (PD), which reflects the integrity of the gastric mucosa, is measured so as to confirm that the sample compound has no damaging effect on gastric mucosa, which is toxicity at gastric mucosal level.
Male CDj:SD rats (7 to 8-week-old) were fasted overnight, but allowed free access to water, and then, under urethane anesthesia (1.25 g/kg, i.p.), fixed to a cork board on its back. The abdomen of each rat was incised, and a small incision was made in the forestomach. Then, the inside of the stomach was washed with physiological saline heated at 37° C. From the forestomach, along the greater curvature thereof, the stomach was incised without damaging blood vessels. After the height of the cork board was adjusted on a jack, the stomach was mounted on ex vivo chamber. The area of the gastric mucosa exposed to the inside of this chamber was 2.5 cm^2. The inside of the chamber was perfused with physiological saline warmed at 37° C. by micro tube pump. By using an agar bridge containing 3M KCl, the potential difference between the chamber and the abdominal cavity was measured by a PD meter. Here, the rectal temperature was measured to control the body temperature during the experiment. […] To a control, the vehicle was administered.
The change in PD during 60 minutes after the administration of 100 mg/kg of the sample compound was collectively studied and, with reference to the positive control, classified into 5 levels as follows:
5: Same as the control with no recognizable damage at all.
3: Though a weak decrease in PD and a possibility of a weak mucosal damage is recognized, there is no substantial problem.
2: Medium degree of decrease in PD is found and a mucosal damage is recognized.
1: Heavy degree of decrease in PD is found and a remarkable mucosal damage is recognized.

[1] = system: gastric acid secretion (pylorus-ligated, histamine-stimulated rats); test: VOL, TAO: Acid Secretion Inhibition Test In Vivo; design: species or system rat (male Crj:Donryu); conditions: rat, 100 mg/kg, oral; histamine 30 mg/kg s.c.
Method: VOL, TAO: Acid Secretion Inhibition Test In Vivo
Inhibitory effect on acid secretion in vivo is confirmed.
Male Crj:Donryu rats (7-week-old) were fasted overnight but allowed free access to water. In each group, 8 to 10 of these rats were used under urethane anesthesia (1.25 g/kg). […] 30 minutes later, the abdomen of each was incised and the pylorus was ligated. 30 minutes after the ligation, 30 mg/kg of histamine dissolved in physiological saline was subcutaneously administered and, 3 hours thereafter, the rat was sacrificed with carbon dioxide. Immediately thereafter, each stomach was removed and the gastric contents were collected and each volume was determined. The total acid output was determined by titration of the gastric juice with 0.1N NaOH.
With respect to the gastric juice volume (VOL) and the total acid output (TAO), the effects obtained when 100 mg/kg of the sample compound had been administered were expressed as their respective inhibitory rates (%) as follows:
each inhibitory rate (%)=(1-(value in sample group/value in control

mice = conditions: mouse, in vivo
Method: AT: Single Dose Toxicity Pretest
Male Slc:ICR mice (5-week-old) were used. Each group has 3 to 5 mice and each mouse was fasted, but allowed free access to water, for 4 to 5 hours from 9 a.m. in the test day. Then, 2,000 mg/10 ml/kg of the sample compound dissolved or suspended in an aqueous solution of 0.5% sodium carboxymethyl cellulose was orally administered thereto. To a control, only the vehicle was administered. […] The body weight was measured before and after the fasting as well as at the same time everyday. The dead animals were immediately subjected to autopsy and their organs were observed microscopically. Also, the living animals were sacrificed with ether or carbon dioxide one week after the administration and then their organs were observed microscopically.
The toxicity at the single dose of 2,000 mg/kg of the sample compound was expressed as being classified into 5 levels.
5: Mortality rate is 0%; no toxicity is found at all both in behavior and organs.
4: Mortality rate is 0%; while no toxicity is found in organs, slight toxicity is observed in behavior and body weight increase.
3: While there is a dead animal (though not all the animals are dead), no toxicity is found in organs.
2: Regardless of whether there is a dead animal or not, toxicity is found in organs.
1: All the animals are dead.

[2] = system: stress ulcer formation (rats); test: WIS: Restraint and Water Immersion Stress-Induced Ulcer Inhibition Test; format: in vivo, rat (male Crj:SD or Slc:SD); conditions: rat, 100 mg/kg, oral, 7 hours water immersion stress
Method: WIS: Restraint and Water Immersion Stress-Induced Ulcer Inhibition Test
The degree of inhibition of the stress ulcer formation is tested.
Male Crj:SD or Slc:SD rats (6 to 7-week-old) were fasted overnight, but allowed free access to water. Each group has 5 to 8 of these rats. […] To a control group, the vehicle was administered. 10 minutes later, the rats were placed in a stress cage and immersed to the level of xipfoid process in a water bath (21° C.) for 7 hours. At the end of the stress, the rats were sacrificed by inhalation of ether or carbon dioxide. Then, the stomach of each was removed, inflated by injecting 10 ml of 5% formalin neutral buffer solution, and immersed in 1% formalin neutral buffer solution for 30 minutes or more to be fixed. The stomach was incised along the greater curvature and then the length of each erosion in the glandular portion was determined under dissecting microscope. The sum of the length of erosions per stomach was defined as ulcer index (UI).
The effect obtained when 100 mg/kg of the sample compound had been administered was expressed as ulcer formation inhibitory rate (%) as follows:
ulcer formation inhibitory rate (%)=(1-(UI in sample group/UI in control

Structure (SMILES)	PD: change in gastric mucosal potential difference (5 levels) (gastric mucosa)	TAO: total acid output inhibitory rate [1] [%]	VOL: gastric juice volume inhibitory rate [1] [%]	AT: toxicity at the single dose (5 levels) (mice)	WIS: ulcer formation inhibitory rate [2] [%]
CC(C)=CCC/C(C)=C/COc1ccc(C(=O)NCCc2ccccn2)cc1 [Example 1, 2-[2-(4-geranyloxybenzoylamino)ethyl]pyridine]	5	8	4	5	50
CC(C)=CCC/C(C)=C/COc1ccc(C(=O)NCCc2ccncc2)cc1 [Example 2, 4-[2-(4-geranyloxybenzoylamino)ethyl]pyridine]	3	25	17	5	77
CC(C)=CCC/C(C)=C/COc1ccc(C(=O)NCc2ccncc2)cc1 [Example 3, 4-(4-geranyloxybenzoylaminomethyl)pyridine]	3			5	61
CC(C)=CCC/C(C)=C/COc1ccc(C(=O)Nc2cccnc2)cc1 [Example 4, 3-(4-geranyloxybenzoylamino)pyridine]	5				39
CC(C)=CCOc1ccc(OCC=C(C)C)c(C(=O)NCCc2ccncc2)c1 [Example 6, 4-[2-(2,5-diprenyloxybenzoylamino)ethyl]pyridine]	5				48
CC(C)=CCC/C(C)=C/COc1ccc(C(=O)NCCNc2cccnc2)cc1 [Example 7, 3-[2-(4-geranyloxybenzoylamino)ethylamino]pyridine]	3				81
COc1ccc(NCCNC(=O)c2ccc(OC/C=C(\C)CCC=C(C)C)cc2)nc1 [Example 8, 2-[2-(4-geranyloxybenzoylamino)ethylamino]-5-methoxypyridine]	5	-7	7	5	55
CC(C)=CCC/C(C)=C/COc1ccc(C(=O)NCCNc2cc(C)cc(C)n2)cc1 [Example 10, 2,4-dimethyl-6-[2-(4-geranyloxybenzoylamino)ethylamino]pyridine]	3			4	55
COc1ccc(SCCNC(=O)c2ccc(OC/C=C(\C)CCC=C(C)C)cc2)nc1 [Example 11, 2-[2-(4-geranyloxybenzoylamino)ethylthio]-5-methoxypyridine]	4			5	61
CC(C)=CCC/C(C)=C/COc1ccc(C(=O)NCC(=O)Nc2ccccn2)cc1 [Example 13, 2-[2-(4-geranyloxybenzoylamino)acetylamino]pyridine]	5			5	33
